The values that follow come from patent US20070219115A1, “Pharmaceutical Uses of Bisphosphonates” (priority 2003, published 2007).

The test system of data set [1] is MCF7Ca cells. In words: Apoptosis/necrosis of MCF7Ca cells, nuclear morphology after Hoechst and propidium iodide staining. It is filed as cell-based. Conditions: for apoptotic cell death, each drug individually: MCF7Ca treated with each drug individually. As for the experimental part: (§1) Breast cancer cells MCF7Ca (gift from Dr Chen, NY, USA) are used. Letrozole and zoledronic acid are provided by Novartis AG, Basel, Switzerland.
Following the initial dose-response studies the sequential and combined treatments are carried out using 10 μM zoledronic acid and 100 nM letrozole for 24 hours each, followed by a drug-free incubation period up to 24 hours. In some additional studies 1 μM zoledronic acid is used for 1 hour only.
The levels of apoptotic/necrotic tumour cell death are determined by evaluation of nuclear morphology following staining of the cells using Hoechst and propidium iodide.
The levels of apoptosis and necrosis caused by increasing doses of zoledronic acid is determined by expressing the cells to zoledronic acid for 1 hour, followed by a 72 hour incubation in drug-free medium. [drawing]
The levels of apoptosis caused by increasing doses of letrozole is determined by exposing the cells to letrozole for 72 hours. [drawing]
Cells are treated with a combination of 100 nM letrozole and 10 μM zoledronic acid for 24 hours, and the levels of apoptotic cell death determined following an additional 48 hours incubation in drug-free medium. [drawing]
In this series of experiments the cells are exposed to 10 μM zoledronic acid for 24 hours, washed and subsequently treated with 100 nM letrozole for 24 hours. The levels of apoptotic cell death are determined following a further 24 hours incubation in drug-free medium. [drawing]
(GGOH is an intermediary of the mevalonate pathway and is commonly used to reverse the effects of zoledronic acid inhibition of this pathway). In this set of experiments cells are treated with 100 nM letrozole for 24 hours followed by 1 hour treatment with 10 μM zoledronic acid+50 μM GGOH. The level of apoptosis is determined at 72 hours.
These experiments are performed in order to determine if the effects of zoledronic acid and letrozole are affected by starving the cells by treating them under serum-free conditions. [drawing]

In data set [2] the test system is MCF7Ca cells. In words: MCF7Ca cell growth, cells counted with coulter counter. The data set is classed as cell-based. How it is done: as §1
MCF7Ca cells are exposed to increasing doses of zoledronic acid for 1 hour, the drug removed and the cells incubated in drug-free medium up to 72 hours. The number of cells are counted using a coulter counter. [drawing]
MCF7Ca cells are exposed to increasing doses of letrozole for 24, 48 and 72 hours. For the 24 and 48 hour time points the drug is removed and the cells incubated in drug-free medium up to 72 hours. The number of cells are counted using a coulter counter. [drawing]

The conditions of data set [3]: following infusion of ZOL in vivo, for a few hours; cited from earlier work.
The subject of the next data set is MCF7 cells. In words: Apoptosis of MCF7 cells treated with ZOL and/or PAC, evaluated by nuclear morphology. The data set is classed as cell-based. To be noted: for apoptosis: Experiment 2: 2 nM PAC 4 hours day 1, 1 μM ZOL 1 hour day 2, combined or alone, drug free medium to 48 hours. How it is done: MCF7 cells are seeded and pre-incubated then treated with ZOL and/or PAC in the sequences given below. In the case of the PAC then ZOL sequence, in one of the experiments geranylglycerol (GGOH, 50 μM) is added and then removed with the ZOL. Apoptosis is determined by evaluation of nuclear morphology.
Group 1: 25 μM ZOL (for 1 hour on day 1) followed by 2 nM PAC (for 4 hours day 2)
Group 2: 2 nM PAC (for 4 hours on day 1) followed by 25 μm ZOL (for 1 hour on day 2)
Following the last drug exposure the cells in each group are incubated in drug free medium to 48 hours.
2 nM PAC (for 4 hours on day 1) followed by 1 μM ZOL (for 1 hour on day 2). Following the last drug exposure the cells are incubated in drug free medium to 48 hours.
2 nM PAC (for 4 hours on day 1) followed by 25 μM or 1 μM ZOL (for 1 hour on day 2), with or without geranylgeraniol (GGOH) 50 μM (added and removed simultaneously with the ZOL). Following the last drug exposure the cells are incubated in drug free medium to 48 hours.

Data set [4] concerns breast cancer lines MDA-MB-426 and MCF7. Nature of the data set: Apoptosis of breast cancer cells treated with ZOL and TRAIL. It is filed as cell-based. Conditions: single agents as controls. How it is done:
The breast cancer lines MDA-MB-426 and MCF7 and the prostate cancer cell line PC3 are treated with ZOL (25 μM and TRAIL (purchased from R&D systems, Abingdon, UK; 10 ng/ml) for varying incubation periods and sequences as follows:
Group 1: TRAIL given first for 24 hours followed by ZOL for 48 hours. […]
Group 3: ZOL and TRAIL given simultaneously for 24 hours.
Group 4: TRAIL given first for 24 hours then ZOL for 4 hours followed by drug-free medium for 48 hours.
Group 5: ZOL given first for 4 hours and cells maintained in drug-free medium for 48 hours followed by TRAIL for 24 hours.

The mark [5] stands for this setting: 100 μM, 1 hour exposure, 72 hour drug-free.
The mark [6] stands for this setting: group 1: TRAIL 10 ng/ml 24 hours followed by ZOL 25 μM 48 hours.
The mark [7] stands for this setting: group 2: ZOL 25 μM for 48 hours followed by TRAIL 10 ng/ml.
Where [8] appears, read: group 3: ZOL 25 μM and TRAIL 10 ng/ml together for 24 hours.
Where [9] appears, read: 100 nM (highest dose tested), 72 hours.

Turning to `O=P(O)(O)C(O)(Cn1ccnc1)P(=O)(O)O` [ZOL, 2-(imidazol-1yl)-1-hydroxyethane-1,1-diphosphonic acid], in the data set on MCF7Ca cells [1] (setting [5]), the apoptotic cells entry was “less than 3%”. Moreover, the necrotic cell death in the data set on MCF7Ca cells [1] (setting [5]) is 4.5%. For the same molecule, the “apoptotic cell death, each drug individually” value in the data set with MCF7Ca cells [1] is given as “do not induce significant levels of apoptotic cell death”. The “doses causing a decrease in the number of MCF7Ca” value in the data set on MCF7Ca cells [2] (1 hour exposure, drug-free medium up to 72 hours) is recorded as “above 1 μM”. Besides, the peak plasma concentration in data set [3] was 1 to 2 µM. In addition, the apoptosis in the data set with MCF7 cells is 0.25%; in data set [4] (setting [6]), 0.5%; in data set [4] (setting [7]) it was 0.7%; in data set [4] (setting [8]), 0.7%.

Consider `N#Cc1ccc(C(c2ccc(C#N)cc2)n2cncn2)cc1` [letrozole, 4-[α-(4-cyanophenyl)-1-(1,2,4-triazolyl)methyl]-benzonitrile], for which, in the data set on MCF7Ca cells [1] (setting [9]), the apoptosis result is “less than 3%” and the necrosis result was “less than 4%”. Besides, the “apoptotic cell death, each drug individually” value in the data set with MCF7Ca cells [1] is listed as “do not induce significant levels of apoptotic cell death”. The “effect on cell number at low doses” value with MCF7Ca cells [2] (0.1 nM (all time points), 1 nM (24 and 48 hours)) was “Increased number of cells”. Further, the “reduction in cell number compared to control” value with MCF7Ca cells [2] (100 nM letrozole, 72 hours) worked out at 31%.

For the molecule `CC(=O)O[C@H]1C(=O)[C@@]2(C)[C@H]([C@H](OC(=O)c3ccccc3)[C@]3(O)C[C@H](OC(=O)[C@H](O)[C@@H](NC(=O)c4ccccc4)c4ccccc4)C(C)=C1C3(C)C)[C@]1(OC(C)=O)CO[C@@H]1C[C@@H]2O` (relative stereo) [PAC, [2aR-[2aα, 4β, 4αβ, 6αβ, 9α(αR*, βS*),-11α,12α,12aα,12bα]]-β-(benzoylamino)-α-hydroxybenzenepropanoic acid 6,12b-bis(acetyloxy)-12-(benzoyloxy)-2α,3,4,4a,5,6,9,10,11,12,12a,12b-dodecahydro-4,11-dihydroxy-4a,8,13,13-tetramethyl-5-oxo-7,11-methano-1H-cyclodeca[3,4]benz[1,2-b]oxet-9-yl ester], the apoptosis with MCF7 cells was found to be 1.25%.

Consider `CC(C)=CCC/C(C)=C/CC/C(C)=C/CC/C(C)=C/CO` [GGOH, geranylgeraniol], for which the “level of apoptosis with GGOH added” value with MCF7Ca cells [1] (100 nM letrozole 24 hours followed by 1 hour 10 μM zoledronic acid + 50 μM GGOH, apoptosis at 72 hours) was “reduced to the same level observed using letrozole alone”. In the data set on MCF7 cells (Experiment 3: PAC followed by ZOL combined with GGOH 50 μM), the “prevention of the synergistic increase in apoptotic cell death” value is 70-80%.

B1: TRAIL: TNF-related apoptosis inducing ligand, purchased from R&D systems (protein, UniProt P50591 1-281, looked up)
Tumor necrosis factor ligand …: MAMMEVQGGPSLGQTCVLIVIFTVLLQSLCVAVTYVYFTNELKQMQDKYSKSGIACFLKEDDSYWDPNDEESMNSPCWQVKWQLRQLVRKMILRTSEETISTVQEKQQNISPLVRERGPQRVAAHITGTRGRSNTLSSPNSKNEKALGRKINSWESSRSGHSFLSNLHLRNGELVIHEKGFYYIYSQTYFRFQEEIKENTKNDKQMVQYIYKYTSYPDPILLMKSARNSCWSKDAEYGLYSIYQGGIFELKENDRIFVSVTNEHLIDMDHEASFFGAFLVG
Consider B1, for which the apoptosis in data set [4] (setting [6]) worked out at 1.75%; in data set [4] (setting [7]) it was 2.7%; in data set [4] (setting [8]) it was 1.75%.
